Results as given in PubChem BioAssay (NCI).
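Interpolation was linear, between the two tested concentrations surrounding the appropriate level; five concentrations were tested over 48 hours in 96-well plates. Here, GI50 denotes the concentration required for 50% inhibition of growth. TGI: concentration producing complete growth inhibition.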

Assays:
Assay in all cases: DTP human tumour cell line panel, 48 h
RXF-631 renal = test system: RXF-631 renal
CAKI-1 renal = test system: CAKI-1 renal
RXF 393 renal = test system: RXF 393 renal
HOP-92 NSCLC = test system: HOP-92 NSCLC
SW-620 colon = test system: SW-620 colon
OVCAR-8 ovarian = test system: OVCAR-8 ovarian
OVCAR-5 ovarian = test system: OVCAR-5 ovarian
LOX IMVI melanoma = test system: LOX IMVI melanoma
OVCAR-4 ovarian = test system: OVCAR-4 ovarian
SF-268 CNS = test system: SF-268 CNS
NCI-H522 lung = test system: NCI-H522 lung
A549 NSCLC = test system: A549 NSCLC
DMS 273 small cell lung = test system: DMS 273 small cell lung
SNB-75 CNS = test system: SNB-75 CNS
SN12C renal = test system: SN12C renal
TK-10 renal = test system: TK-10 renal
IGROV1 ovarian = test system: IGROV1 ovarian
HL-60(TB) leukemia = test system: HL-60(TB) leukemia
COLO 205 colon = test system: COLO 205 colon
UACC-62 melanoma = test system: UACC-62 melanoma
SK-MEL-5 melanoma = test system: SK-MEL-5 melanoma
U251 CNS = test system: U251 CNS
CCRF-CEM leukemia = test system: CCRF-CEM leukemia
ACHN renal = test system: ACHN renal
LXFL 529 NSCLC = test system: LXFL 529 NSCLC
NCI-H23 lung = test system: NCI-H23 lung
M19-MEL melanoma = test system: M19-MEL melanoma
KM12 colon = test system: KM12 colon
RPMI-8226 leukemia = test system: RPMI-8226 leukemia
XF 498 CNS = test system: XF 498 CNS
SK-OV-3 ovarian = test system: SK-OV-3 ovarian
EKVX NSCLC = test system: EKVX NSCLC
M14 melanoma = test system: M14 melanoma
SNB-78 CNS = test system: SNB-78 CNS
KM20L2 colon = test system: KM20L2 colon
HCC-2998 colon = test system: HCC-2998 colon
HOP-62 NSCLC = test system: HOP-62 NSCLC
MOLT-4 leukemia = test system: MOLT-4 leukemia
SF-295 CNS = test system: SF-295 CNS
A498 renal = test system: A498 renal
K-562 leukemia = test system: K-562 leukemia
DMS 114 small cell lung = test system: DMS 114 small cell lung
DLD-1 colon = test system: DLD-1 colon
OVCAR-3 ovarian = test system: OVCAR-3 ovarian
SNB-19 CNS = test system: SNB-19 CNS
UO-31 renal = test system: UO-31 renal
786-0 renal = test system: 786-0 renal
SF-539 CNS = test system: SF-539 CNS
UACC-257 melanoma = test system: UACC-257 melanoma
HT29 colon = test system: HT29 colon
SK-MEL-28 melanoma = test system: SK-MEL-28 melanoma
SK-MEL-2 melanoma = test system: SK-MEL-2 melanoma
MALME-3M melanoma = test system: MALME-3M melanoma
NCI-H460 lung = test system: NCI-H460 lung
HCT-15 colon = test system: HCT-15 colon

[N-]=[N+]=NC1C(Cl)C(=O)NC(=O)N1[C@H]1C[C@H](O)[C@@H](CO)O1 (some centres not stated)
TGI (RXF-631 renal): > 100 µM | TGI (CAKI-1 renal): > 100 µM | TGI (RXF 393 renal): > 100 µM | TGI (HOP-92 NSCLC): > 100 µM | TGI (SW-620 colon): > 100 µM | TGI (OVCAR-8 ovarian): > 100 µM | TGI (OVCAR-5 ovarian): > 100 µM | TGI (LOX IMVI melanoma): > 100 µM | TGI (OVCAR-4 ovarian): > 100 µM | GI50 (SF-268 CNS): 94 µM | TGI (SF-268 CNS): > 100 µM | GI50 (NCI-H522 lung): 5.31 µM | TGI (NCI-H522 lung): 36.2 µM | TGI (A549 NSCLC): > 100 µM | TGI (DMS 273 small cell lung): > 100 µM | TGI (SNB-75 CNS): > 100 µM | TGI (SN12C renal): > 100 µM | TGI (TK-10 renal): > 100 µM | TGI (IGROV1 ovarian): > 100 µM | TGI (HL-60(TB) leukemia): > 100 µM | TGI (COLO 205 colon): > 100 µM | TGI (UACC-62 melanoma): > 100 µM | GI50 (SK-MEL-5 melanoma): 12.3 µM | TGI (SK-MEL-5 melanoma): > 100 µM | TGI (U251 CNS): > 100 µM | GI50 (CCRF-CEM leukemia): 26.3 µM | TGI (CCRF-CEM leukemia): > 100 µM | TGI (ACHN renal): > 100 µM | TGI (LXFL 529 NSCLC): > 100 µM | TGI (NCI-H23 lung): > 100 µM | GI50 (M19-MEL melanoma): 52.1 µM | TGI (M19-MEL melanoma): > 100 µM | TGI (KM12 colon): > 100 µM | GI50 (RPMI-8226 leukemia): 71.9 µM | TGI (RPMI-8226 leukemia): > 100 µM | TGI (XF 498 CNS): > 100 µM | TGI (SK-OV-3 ovarian): > 100 µM | TGI (EKVX NSCLC): > 100 µM | TGI (M14 melanoma): > 100 µM | TGI (SNB-78 CNS): > 100 µM | TGI (KM20L2 colon): > 100 µM | TGI (HCC-2998 colon): > 100 µM | TGI (HOP-62 NSCLC): > 100 µM | TGI (MOLT-4 leukemia): > 100 µM | TGI (SF-295 CNS): > 100 µM | TGI (A498 renal): > 100 µM | TGI (K-562 leukemia): > 100 µM | TGI (DMS 114 small cell lung): > 100 µM | TGI (DLD-1 colon): > 100 µM | TGI (OVCAR-3 ovarian): > 100 µM | TGI (SNB-19 CNS): > 100 µM | TGI (UO-31 renal): > 100 µM | TGI (786-0 renal): > 100 µM | TGI (SF-539 CNS): > 100 µM | TGI (UACC-257 melanoma): > 100 µM | TGI (HT29 colon): > 100 µM | TGI (SK-MEL-28 melanoma): > 100 µM | TGI (SK-MEL-2 melanoma): > 100 µM | TGI (MALME-3M melanoma): > 100 µM | TGI (NCI-H460 lung): > 100 µM

CC(C)N1CCOC(c2ccc(O)c(O)c2)C1 (configuration not stated)
TGI (RXF-631 renal): > 100 µM | TGI (HCT-15 colon): > 100 µM | TGI (CAKI-1 renal): > 100 µM | TGI (RXF 393 renal): > 100 µM | TGI (HOP-92 NSCLC): > 100 µM | TGI (SW-620 colon): > 100 µM | TGI (OVCAR-8 ovarian): > 100 µM | TGI (OVCAR-5 ovarian): > 100 µM | TGI (LOX IMVI melanoma): > 100 µM | TGI (OVCAR-4 ovarian): > 100 µM | TGI (SF-268 CNS): > 100 µM | TGI (NCI-H522 lung): > 100 µM | TGI (A549 NSCLC): > 100 µM | TGI (DMS 273 small cell lung): > 100 µM | TGI (SNB-75 CNS): > 100 µM | TGI (SN12C renal): > 100 µM | TGI (TK-10 renal): > 100 µM | TGI (IGROV1 ovarian): > 100 µM | TGI (HL-60(TB) leukemia): > 100 µM | TGI (COLO 205 colon): > 100 µM | TGI (UACC-62 melanoma): > 100 µM | TGI (SK-MEL-5 melanoma): > 100 µM | TGI (CCRF-CEM leukemia): > 100 µM | TGI (ACHN renal): > 100 µM | TGI (LXFL 529 NSCLC): > 100 µM | TGI (NCI-H23 lung): > 100 µM | TGI (M19-MEL melanoma): > 100 µM | TGI (KM12 colon): > 100 µM | TGI (RPMI-8226 leukemia): > 100 µM | TGI (XF 498 CNS): > 100 µM | TGI (SK-OV-3 ovarian): > 100 µM | TGI (EKVX NSCLC): > 100 µM | TGI (M14 melanoma): > 100 µM | TGI (SNB-78 CNS): > 100 µM | TGI (KM20L2 colon): > 100 µM | TGI (HCC-2998 colon): > 100 µM | TGI (HOP-62 NSCLC): > 100 µM | TGI (MOLT-4 leukemia): > 100 µM | TGI (SF-295 CNS): > 100 µM | TGI (K-562 leukemia): > 100 µM | TGI (DMS 114 small cell lung): > 100 µM | TGI (DLD-1 colon): > 100 µM | TGI (OVCAR-3 ovarian): > 100 µM | TGI (SNB-19 CNS): > 100 µM | TGI (UO-31 renal): > 100 µM | TGI (786-0 renal): > 100 µM | TGI (UACC-257 melanoma): > 100 µM | TGI (HT29 colon): > 100 µM | TGI (SK-MEL-28 melanoma): > 100 µM | TGI (SK-MEL-2 melanoma): > 100 µM | TGI (MALME-3M melanoma): > 100 µM | TGI (NCI-H460 lung): > 100 µM
